What was measured:
bay LPAAT = test: LPAAT activity assay, California bay P2 membrane preparation; assay type: biochemical, Umbellularia californica; details: P2 membrane preparation; acyl-CoA donor varied, acceptor 12:0-LPA
Experimental: To assay for LPAAT activity, the sample is incubated with lysophosphatidic acid (LPA) and acyl-coenzyme A (acyl-CoA) substrates in buffered solution. The acyl substituents of the two substrates are chosen to correspond with the specificity of the enzyme being measured. […] The acyl group of one substrate is radioactively labeled in order to detect the product formed. In the examples which follow the acyl substituent of the acyl-CoA substrate is radiolabeled with ^14 C in the carboxyl group. LPAAT activity results in transfer of this acyl group from the acyl-CoA "donor" substrate to the LPA "acceptor" substrate, converting the latter into the product, phosphatidic acid (PA). LPAAT activity is measured as the amount of radioactive product formed in a given assay time. The PA product is radioactive as a result of the transferred radiolabeled acyl group at the central carbon atom of the molecule, and the quantity of PA formed may be determined by measuring radioactivity of the PA fraction. For this measurement, the PA is first separated from the acyl-CoA substrate by solvent partitioning, or by thin-layer chromatography (TLC).

Rapeseed LPAAT = test: LPAAT activity assay, rapeseed P2 membrane preparation; assay type: biochemical, Brassica napus; details: acyl-CoA donor varied, acceptor 12:0-LPA
Experimental: (§1) To assay for LPAAT activity, the sample is incubated with lysophosphatidic acid (LPA) and acyl-coenzyme A (acyl-CoA) substrates in buffered solution. The acyl substituents of the two substrates are chosen to correspond with the specificity of the enzyme being measured. For example, to measure activity of an LPAAT having preference for medium-chain substrates, lauroyl-LPA (lauroyl-lysophosphatidic acid) and lauroyl-CoA may be used, to measure activity of an LPAAT preferring longer-chain acyl groups, oleoyl-LPA and oleoyl-CoA may be used, to measure activity of an LPAAT preferring very-long chain substrate, erucyl-LPA and erucyl-CoA may be used, and so on, depending upon the type of LPAAT to be tested. The acyl group of one substrate is radioactively labeled in order to detect the product formed. In the examples which follow the acyl substituent of the acyl-CoA substrate is radiolabeled with ^14 C in the carboxyl group. LPAAT activity results in transfer of this acyl group from the acyl-CoA "donor" substrate to the LPA "acceptor" substrate, converting the latter into the product, phosphatidic acid (PA). LPAAT activity is measured as the amount of radioactive product formed in a given assay time. The PA product is radioactive as a result of the transferred radiolabeled acyl group at the central carbon atom of the molecule, and the quantity of PA formed may be determined by measuring radioactivity of the PA fraction. For this measurement, the PA is first separated from the acyl-CoA substrate by solvent partitioning, or by thin-layer chromatography (TLC).
(§2) 20 μl of the sample to be assayed for LPAAT activity is mixed with 217.5 μl of an assay ingredient mixture in a 4-ml, screw-cap vial. […] The incubation takes place in a water bath at 30° C., for 20-30 minutes.
(§3) To stop the assay, 0.25 ml of 1M KCl in 0.2M H3 PO4 is added to the vial. At this point, 40 μl BSA (bovine serum albumin, fraction V) at 1 mg/ml are added, followed by 0.75 ml of a solution of 67 μg/ml unlabeled PA (acting as a "carrier" to facilitate partitioning) in chloroform/methanol (2:1, v/v). The chain lengths of the PA acyl groups are chosen to correspond to those used in the assay substrates. Upon thorough mixing of these components the radiolabeled PA product of the LPAAT reaction partitions into the organic phase and away from the unreacted acyl-CoA and LPA. The vial is centrifuged briefly at low speed to facilitate the separation of organic (lower) and aqueous (upper) phases. The aqueous phase is then removed and discarded. The total radioactivity extracted into the organic phase is determined by liquid scintillation counting; a 100 μl sample of the organic phase is transferred to a 20 ml scintillation vial and allowed to dry, and scintillation fluid (3-5 ml) is added to the vial. The radioactivity of the sample, after subtraction of the "minus-enzyme" or "minus-LPA" radioactivities, is taken as an approximate indication of the amount of PA formed in the LPAAT-catalyzed reaction and therefore of LPAAT activity.
A more accurate estimation of the LPAAT activity may be obtained by separating the PA product from these contaminants by TLC. The remaining organic phase is applied to a silica TLC plate. […] After the plate has dried, the distribution of radioactivity is visualized and quantitated using an AMBIS radioanalytic imaging system (AMBIS Systems Inc., San Diego, Calif.). From prior application of standard lipid components the Rf of the PA is known. The radioactivity associated with the PA spot is expressed as a percentage of the total radioactivity of the assay sample loaded on the plate. This ratio provides an indication of the proportion of the scintillation counts which represent the PA product, and may be used to correct the counts to obtain the total PA radioactivity formed in the assay.
A P2 membrane homogenate from immature embryos of developing rapeseed (Brassica napus) seeds is prepared essentially as described above, except as noted below.

control rapeseed LPAAT = test: LPAAT acyl-CoA specificity, control P2 preparation; assay type: biochemical; details: acyl-CoA donor varied at 5 μM, acceptor 12:0-LPA; 30 minute reaction
Experimental: Detailed acyl-CoA chain-length specificity analysis of control P2 preparations and LPAAT-transformed line 5511-5 were determined as described above, using the original 30 minute reaction time. The acyl-CoA substrates for this analysis are present in methanol, and thus the assay also had the following modifications. The first solution placed in the assay vial was the volume of each radiolabeled acyl-CoA required for 5 μM final assay concentration. […] After mixing to redissolve the acyl-CoA off the vial wall, the reaction is started by addition of 25 μl of a 5-fold diluted P2 preparation and continued as before. Acyl-CoA substrates used in this analysis were 8:0, 10:0, 12:0, 14:0, 16:0, 18:0, and 18:1. The acceptor substrate in these assays was 12:0-LPA.

coconut LPAAT = biological target: T1, coconut LPAAT (Cocos nucifera, UniProt Q42670); test: LPAAT activity assay, coconut P2 membrane preparation; assay type: biochemical; set-up: white endosperm tissue lining the inside of the endocarp can be dissected and collected; from tissue; host or cells: immature coconut endosperm, P2 membrane fraction; details: P2 membrane preparation; acyl-CoA donor varied, acceptor 12:0-LPA
T1 sequence (Q42670 1-308): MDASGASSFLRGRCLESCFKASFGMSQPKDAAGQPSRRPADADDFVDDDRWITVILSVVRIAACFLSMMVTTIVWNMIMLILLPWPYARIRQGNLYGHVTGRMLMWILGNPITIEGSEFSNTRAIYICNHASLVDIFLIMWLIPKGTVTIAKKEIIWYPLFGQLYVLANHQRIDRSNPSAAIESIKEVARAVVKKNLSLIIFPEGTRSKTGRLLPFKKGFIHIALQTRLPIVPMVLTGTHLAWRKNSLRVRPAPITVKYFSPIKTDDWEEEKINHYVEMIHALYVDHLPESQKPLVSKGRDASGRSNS
Experimental: as §1, §2, §3
A more accurate estimation of the LPAAT activity may be obtained by separating the PA product from these contaminants by TLC. The remaining organic phase is applied to a silica TLC plate. Ascending chromatography is carried out for 50 minutes, using the solvent mixture chloroform/pyridine/88% formic acid (50:30:7, v/v). After the plate has dried, the distribution of radioactivity is visualized and quantitated using an AMBIS radioanalytic imaging system (AMBIS Systems Inc., San Diego, Calif.). From prior application of standard lipid components the Rf of the PA is known. The radioactivity associated with the PA spot is expressed as a percentage of the total radioactivity of the assay sample loaded on the plate. This ratio provides an indication of the proportion of the scintillation counts which represent the PA product, and may be used to correct the counts to obtain the total PA radioactivity formed in the assay. […]

| Compound | LPAAT Activity from Bay (bay LPAAT) | LPAAT Activity from Rapeseed (Rapeseed LPAAT) | Cpm PA Product, Control (control rapeseed LPAAT) [Cpm] | LPAAT Activity from Coconut (coconut LPAAT) |
| --- | --- | --- | --- | --- |
| CCCCCCCC(=O)SCCNC(=O)CCNC(=O)[C@H](O)C(C)(C)COP(=O)(O)OP(=O)(O)OC[C@H]1O[C@@H](n2cnc3c(N)ncnc32)[C@H](O)[C@@H]1OP(=O)(O)O [8:0] | 13 pmol PA formed/30 min assay | 2 pmol PA formed/30 min assay | 149 | 6 pmol PA formed/30 min assay |
| CCCCCCCCCC(=O)SCCNC(=O)CCNC(=O)[C@H](O)C(C)(C)COP(=O)(O)OP(=O)(O)OC[C@H]1O[C@@H](n2cnc3c(N)ncnc32)[C@H](O)[C@@H]1OP(=O)(O)O [10:0] | 10 pmol PA formed/30 min assay | 12 pmol PA formed/30 min assay | 831 | 43 pmol PA formed/30 min assay |
| CCCCCCCCCCCC(=O)SCCNC(=O)CCNC(=O)[C@H](O)C(C)(C)COP(=O)(O)OP(=O)(O)OC[C@H]1O[C@@H](n2cnc3c(N)ncnc32)[C@H](O)[C@@H]1OP(=O)(O)O [12:0, lauroyl-CoA] | 14 pmol PA formed/30 min assay | 79 pmol PA formed/30 min assay | 1758 | 238 pmol PA formed/30 min assay |
| CCCCCCCCCCCCCC(=O)SCCNC(=O)CCNC(=O)[C@H](O)C(C)(C)COP(=O)(O)OP(=O)(O)OC[C@H]1O[C@@H](n2cnc3c(N)ncnc32)[C@H](O)[C@@H]1OP(=O)(O)O [14:0] | 5 pmol PA formed/30 min assay | 16 pmol PA formed/30 min assay | 1544 | 61 pmol PA formed/30 min assay |
| CCCCCCCCCCCCCCCC(=O)SCCNC(=O)CCNC(=O)[C@H](O)C(C)(C)COP(=O)(O)OP(=O)(O)OC[C@H]1O[C@@H](n2cnc3c(N)ncnc32)[C@H](O)[C@@H]1OP(=O)(O)O [16:0] | 6 pmol PA formed/30 min assay | 27 pmol PA formed/30 min assay | 3034 | 21 pmol PA formed/30 min assay |
| CCCCCCCC/C=C\CCCCCCCC(=O)SCCNC(=O)CCNC(=O)[C@H](O)C(C)(C)COP(=O)(O)OP(=O)(O)OC[C@H]1O[C@@H](n2cnc3c(N)ncnc32)[C@H](O)[C@@H]1OP(=O)(O)O [18:1, oleoyl-CoA] | 5 pmol PA formed/30 min assay | 218 pmol PA formed/30 min assay | 7946 | 9 pmol PA formed/30 min assay |

— patent US5968791A, “Plant lysophosphatidic acid acyltransferases” (Calgene, Inc., priority 1995, dated 1999)
